System: CN0375-F725-PDC KRAS spheroid viability
Assay: Anticancer human tumor CN0375-F725-PDC patient-derived colon carcinoma cell line growth inhibition [KRAS2]
Conditions: spheroids with HUVEC and MSC; for IC50: curve of first compound; for viability, T/C: stronger effect = lower value
How it was run: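 KRAS-mutant tumor cells were grown as spheroids with HUVEC endothelial cells and human MSCs as stroma. Targeted agents were tested alone and with KRAS pathway inhibitors. Doses started at or near clinical Cmax, or 10 microM, descending half-log.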

[1] = second compound 0.1 µM, first compound 0.000316 µM
[2] = second compound 0.1 µM, first compound 0.001 µM
[3] = second compound 0.1 µM, first compound 0.00316 µM
[4] = second compound 0.1 µM, first compound 0.01 µM
[5] = second compound 0.1 µM, first compound 0.0316 µM
[6] = second compound 0.1 µM, first compound 0.1 µM
[7] = second compound 0.316 µM, first compound 0.000316 µM
[8] = second compound 0.316 µM, first compound 0.001 µM
[9] = second compound 0.316 µM, first compound 0.00316 µM
[10] = second compound 0.316 µM, first compound 0.01 µM
[11] = second compound 0.316 µM, first compound 0.0316 µM
[12] = second compound 0.316 µM, first compound 0.1 µM
[13] = second compound 1 µM, first compound 0.000316 µM
[14] = second compound 1 µM, first compound 0.001 µM
[15] = second compound 1 µM, first compound 0.00316 µM
[16] = second compound 1 µM, first compound 0.01 µM
[17] = second compound 1 µM, first compound 0.0316 µM
[18] = second compound 1 µM, first compound 0.1 µM
[19] = second compound 3.16 µM, first compound 0.000316 µM
[20] = second compound 3.16 µM, first compound 0.001 µM
[21] = second compound 3.16 µM, first compound 0.00316 µM
[22] = second compound 3.16 µM, first compound 0.01 µM
[23] = second compound 3.16 µM, first compound 0.0316 µM
[24] = second compound 3.16 µM, first compound 0.1 µM
[25] = second compound 10 µM, first compound 0.000316 µM
[26] = second compound 10 µM, first compound 0.001 µM
[27] = second compound 10 µM, first compound 0.00316 µM
[28] = second compound 10 µM, first compound 0.01 µM
[29] = second compound 10 µM, first compound 0.0316 µM
[30] = second compound 10 µM, first compound 0.1 µM
[31] = second compound 0.1 µM, first compound 0.316 µM
[32] = second compound 0.1 µM, first compound 1 µM
[33] = second compound 0.1 µM, first compound 3.16 µM
[34] = second compound 0.316 µM, first compound 0.316 µM
[35] = second compound 0.316 µM, first compound 1 µM
[36] = second compound 0.316 µM, first compound 3.16 µM
[37] = second compound 1 µM, first compound 0.316 µM
[38] = second compound 1 µM, first compound 1 µM
[39] = second compound 1 µM, first compound 3.16 µM
[40] = second compound 3.16 µM, first compound 0.316 µM
[41] = second compound 3.16 µM, first compound 1 µM
[42] = second compound 3.16 µM, first compound 3.16 µM
[43] = second compound 10 µM, first compound 0.316 µM
[44] = second compound 10 µM, first compound 1 µM
[45] = second compound 10 µM, first compound 3.16 µM
[46] = second compound 0.1 µM, first compound 10 µM
[47] = second compound 0.316 µM, first compound 10 µM
[48] = second compound 1 µM, first compound 10 µM
[49] = second compound 3.16 µM, first compound 10 µM
[50] = second compound 10 µM, first compound 10 µM
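Note: spheroids exposed to agents for 7 days.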

Structure (SMILES)	IC50 (second compound 0.1 µM) [nM]	IC50 (second compound 0.316 µM) [nM]	IC50 (second compound 1 µM) [nM]	IC50 (second compound 3.16 µM) [nM]	IC50 (second compound 10 µM) [nM]	viability, T/C [4] [%]	viability, T/C [5] [%]	viability, T/C [6] [%]	viability, T/C [10] [%]	viability, T/C [11] [%]	viability, T/C [12] [%]	viability, T/C [16] [%]	viability, T/C [17] [%]	viability, T/C [18] [%]	viability, T/C [22] [%]	viability, T/C [23] [%]	viability, T/C [24] [%]	viability, T/C [28] [%]	viability, T/C [29] [%]	viability, T/C [30] [%]	other results
Cn1ncnc1[C@H]1c2n[nH]c(=O)c3cc(F)cc(c23)N[C@@H]1c1ccc(F)cc1 + CNCc1ccccc1-c1csc(C(C)Nc2nc(C)nc3cc(OC)c(OC)cc23)c1	> 100	> 100	0.634	< 0.316	< 0.316	95.7	95.4	93.6	86.9	91	88.2	41.5	39.4	40.6	0.28	0.25	0.42	0.15	0.13	0.23	viability, T/C [1]: 107%; viability, T/C [2]: 106%; viability, T/C [3]: 97%; viability, T/C [7]: 100%; viability, T/C [8]: 101%; viability, T/C [9]: 94.5%; viability, T/C [13]: 54.1%; viability, T/C [14]: 46.2%; viability, T/C [15]: 47.8%; viability, T/C [19]: 0.23%; viability, T/C [20]: 0.33%; viability, T/C [21]: 0.31%; viability, T/C [25]: 0.14%; viability, T/C [26]: 0.33%; viability, T/C [27]: 0.13%
CC(=O)OC12COC1CC(O)C1(C)C(=O)C(O)C3=C(C)C(OC(=O)C(O)C(NC(=O)OC(C)(C)C)c4ccccc4)CC(O)(C(OC(=O)c4ccccc4)C21)C3(C)C (stereo not given) + C=CC(=O)N1CCN(c2nc(=O)n(-c3c(C)ccnc3C(C)C)c3nc(-c4c(O)cccc4F)c(F)cc23)C(C)C1	> 3160	> 3160	> 3160	> 3160	> 3160	100	97.4	88.5	99.8	97.8	94.4	96.6	98.2	91.8	97.8	93.8	90.5	93.8	92.5	88.1	viability, T/C [31]: 86.6%; viability, T/C [32]: 86.5%; viability, T/C [33]: 76.8%; viability, T/C [34]: 93.1%; viability, T/C [35]: 85.7%; viability, T/C [36]: 81.7%; viability, T/C [37]: 87.1%; viability, T/C [38]: 88%; viability, T/C [39]: 80%; viability, T/C [40]: 88.2%; viability, T/C [41]: 86.1%; viability, T/C [42]: 89.5%; viability, T/C [43]: 84.9%; viability, T/C [44]: 74.8%; viability, T/C [45]: 79.9%
CN(C)C/C=C/C(=O)Nc1cc2c(Nc3ccc(F)c(Cl)c3)ncnc2cc1O[C@H]1CCOC1 + COc1cc2nc(C)nc(NC(C)c3cc(N)cc(C(F)(F)F)c3)c2cc1OC1CCOC1	> 100	> 100	> 100	> 100	> 100	83.7	84.8	77.9	85.7	78.1	79.3	82.7	81.6	78.1	66.1	66.5	65.8	47	60.6	63.7	viability, T/C [1]: 102%; viability, T/C [2]: 92.6%; viability, T/C [3]: 85.7%; viability, T/C [7]: 96%; viability, T/C [8]: 92.5%; viability, T/C [9]: 86.4%; viability, T/C [13]: 91.9%; viability, T/C [14]: 94.6%; viability, T/C [15]: 87.3%; viability, T/C [19]: 77.3%; viability, T/C [20]: 71.5%; viability, T/C [21]: 71.8%; viability, T/C [25]: 65.5%; viability, T/C [26]: 70.1%; viability, T/C [27]: 68.2%
Cn1nccc1Nc1nccc(-c2cc3c(s2)C(C)(C)N(CCN2CCOCC2)C3=O)n1 + CC1OCC2(CCN(c3cnc(Sc4ccnc(N)c4Cl)c(N)n3)CC2)C1N	2330	1070	661	341	209	–	98.5	83.1	–	88.8	78.1	–	81.2	81.9	–	74.7	65.5	–	62.7	63.3	viability, T/C [31]: 69.8%; viability, T/C [32]: 58.7%; viability, T/C [33]: 47.5%; viability, T/C [46]: 36.7%; viability, T/C [34]: 60.4%; viability, T/C [35]: 51.8%; viability, T/C [36]: 42.1%; viability, T/C [47]: 36.3%; viability, T/C [37]: 60.1%; viability, T/C [38]: 45.3%; viability, T/C [39]: 37.1%; viability, T/C [48]: 35.9%; viability, T/C [40]: 52.1%; viability, T/C [41]: 36.4%; viability, T/C [42]: 33.7%; viability, T/C [49]: 31.5%; viability, T/C [43]: 42.8%; viability, T/C [44]: 31.9%; viability, T/C [45]: 28.9%; viability, T/C [50]: 28.3%
Cn1nccc1Nc1nccc(-c2cc3c(s2)C(C)(C)N(CCN2CCOCC2)C3=O)n1 + COc1cc2nc(C)nc(NC(C)c3cc(N)cc(C(F)(F)F)c3)c2cc1OC1CCOC1	2530	2200	1570	487	< 31.6	–	96.5	85.8	–	88.8	83.2	–	92.9	80.5	–	75.6	68.8	–	11.9	13.1	viability, T/C [31]: 68.7%; viability, T/C [32]: 59.9%; viability, T/C [33]: 47.2%; viability, T/C [46]: 41.6%; viability, T/C [34]: 67.2%; viability, T/C [35]: 59.9%; viability, T/C [36]: 45.2%; viability, T/C [47]: 39.6%; viability, T/C [37]: 63.8%; viability, T/C [38]: 53.2%; viability, T/C [39]: 46.1%; viability, T/C [48]: 37.6%; viability, T/C [40]: 53.8%; viability, T/C [41]: 41.6%; viability, T/C [42]: 35.1%; viability, T/C [49]: 28.2%; viability, T/C [43]: 10.9%; viability, T/C [44]: 8.43%; viability, T/C [45]: 4.35%; viability, T/C [50]: 1.87%

Reference: PubChem BioAssay AID1963860 (Molecular Pharmacology Branch, DTP, NCI, 2024)
